Experiments:
[1] = target: T1, human glucocorticoid receptor (GR) complex (Homo sapiens, UniProt P04150); experiment: Glucocorticoid receptor competitive binding assay (fluorescence polarization, TAMRA-labeled dexamethasone probe); details: compounds of Formula (IA)
T1 construct: made in house; host or cells: insect expression system (baculovirus lysate)
T1 sequence (P04150 1-777): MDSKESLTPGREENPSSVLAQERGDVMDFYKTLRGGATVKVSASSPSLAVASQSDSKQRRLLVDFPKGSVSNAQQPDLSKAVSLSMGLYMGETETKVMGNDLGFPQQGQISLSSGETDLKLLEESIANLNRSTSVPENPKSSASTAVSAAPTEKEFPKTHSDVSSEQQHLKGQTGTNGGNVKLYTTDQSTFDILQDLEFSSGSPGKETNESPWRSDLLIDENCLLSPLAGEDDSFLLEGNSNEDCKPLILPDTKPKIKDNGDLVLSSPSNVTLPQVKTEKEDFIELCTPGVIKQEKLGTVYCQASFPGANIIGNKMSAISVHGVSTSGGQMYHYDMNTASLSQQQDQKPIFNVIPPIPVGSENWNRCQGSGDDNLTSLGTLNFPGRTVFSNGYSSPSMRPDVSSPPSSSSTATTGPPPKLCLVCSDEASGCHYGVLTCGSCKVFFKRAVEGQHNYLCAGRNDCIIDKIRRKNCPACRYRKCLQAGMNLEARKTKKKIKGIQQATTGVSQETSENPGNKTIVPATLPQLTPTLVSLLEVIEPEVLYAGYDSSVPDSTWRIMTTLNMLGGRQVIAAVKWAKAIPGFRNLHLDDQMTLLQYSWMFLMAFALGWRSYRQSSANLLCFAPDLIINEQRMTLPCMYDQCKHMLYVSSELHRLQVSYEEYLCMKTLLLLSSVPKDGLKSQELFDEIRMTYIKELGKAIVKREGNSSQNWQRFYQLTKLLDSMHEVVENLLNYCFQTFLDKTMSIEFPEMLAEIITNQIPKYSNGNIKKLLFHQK
Summary of the method: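 Fluorescence-polarization competition against 15 nM TAMRA-dexamethasone (stock added to the mix) for human GR complex from baculovirus lysate diluted 1:170. Buffer: 10 mM TES, 50 mM KCl, 20 mM Na2MoO4, 1.5 mM EDTA, 0.04% CHAPS, 10% glycerol, 1 mM DTT, pH 7.4. IC50 from 4-parameter logistic fit.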

[2] = system: glucocorticoid receptor function; experiment: one or more of the above assays (GR binding and glucocorticoid receptor cell assays: aromatase, IL-6, TAT, MMTV-Luc, IL-8, ICAM-Luc); assay type: cell-based; details: assay not specified per compound

| Compound | activity in the GR binding assay [1] | activity as agonists of the glucocorticoid receptor function in one or more of the above assays [2] |
| --- | --- | --- |
| COc1ccc(C)cc1C(C)(C)CC(O)(Cc1ccnc2ccccc12)C(F)(F)F (centres unmarked) [1,1,1-Trifluoro-4-(2-methoxy-5-methylphenyl)-4-methyl-2-quinolin-4-ylmethylpentan-2-ol] | potent activity | potent agonists |
| Cc1ccc(C)c(C(C)(C)CC(O)(Cc2ccnc3ccccc23)C(F)(F)F)c1 (centres unmarked) [4-(2,5-Dimethylphenyl)-1,1,1-trifluoro-4-methyl-2-quinolin-4-ylmethylpentan-2-ol] | potent activity | potent agonists |
| CC(C)(CC(O)(Cc1ccnc(F)c1)C(F)(F)F)c1cc(F)ccc1O (centres unmarked) [4-Fluoro-2-[4,4,4-trifluoro-3-(2-fluoropyridin-4-ylmethyl)-3-hydroxy-1,1-dimethylbutyl]phenol] | potent activity | potent agonists |
| COc1ccc(F)cc1C(C)(C)CC(O)(Cc1cc2nc(C#N)ccc2[nH]1)C(F)(F)F (centres unmarked) [2-[4-(5-Fluoro-2-methoxyphenyl)-2-hydroxy-4-methyl-2-trifluoromethylpentyl]-1H-pyrrolo[3,2-b]pyridine-5-carbonitrile] | potent activity | potent agonists |
| CC(C)(CC(O)(Cc1ccnc2ccccc12)C(F)(F)F)c1cc(C#N)cc2c1OCC2 (centres unmarked) [7-(4,4,4-Trifluoro-3-hydroxy-1,1-dimethyl-3-quinolin-4-ylmethylbutyl)-2,3-dihydrobenzofuran-5-carbonitrile] | potent activity | potent agonists |
| COc1ccc(F)cc1C(C)(C)CC(O)(Cc1cc2c(C#N)nccc2[nH]1)C(F)(F)F (centres unmarked) [2-[4-(5-Fluoro-2-methoxyphenyl)-2-hydroxy-4-methyl-2-trifluoromethylpentyl]-1H-pyrrolo[3,2-c]pyridine-4-carbonitrile] | potent activity | potent agonists |
| CC(C)(CC(O)(Cc1ccnc2ccccc12)C(F)(F)F)c1cccc(F)c1 (centres unmarked) [1,1,1-Trifluoro-4-(3-fluorophenyl)-4-methyl-2-quinolin-4-ylmethylpentan-2-ol] | potent activity | potent agonists |
| COc1ccc(F)cc1C(C)(C)CC(O)(Cc1[nH]c2ccncc2c1CN(C)C)C(F)(F)F (centres unmarked) [2-(3-Dimethylaminomethyl-1H-pyrrolo[3,2-c]pyridin-2-ylmethyl)-1,1,1-trifluoro-4-(5-fluoro-2-methoxyphenyl)-4-methylpentan-2-ol] | potent activity | potent agonists |
| Cc1ccc(F)cc1C(C)(C)CC(O)(Cc1cc2cnccc2s1)C(F)(F)F (centres unmarked) [1,1,1-Trifluoro-4-(5-fluoro-2-methylphenyl)-4-methyl-2-thieno[3,2-c]pyridin-2-ylmethylpentan-2-ol] | potent activity | potent agonists |
| CC(C)(CC(O)(Cc1cc2ncncc2[nH]1)C(F)(F)F)c1cc(Cl)cc2c1OCC2 (centres unmarked) [4-(5-Chloro-2,3-dihydrobenzofuran-7-yl)-1,1,1-trifluoro-4-methyl-2-(5H-pyrrolo[3,2-d]pyrimidin-6-ylmethyl)pentan-2-ol] | potent activity | potent agonists |
| Cc1ccc(F)cc1C(C)(C)CC(O)(Cc1cc2cc(N(C)C)ncc2[nH]1)C(F)(F)F (centres unmarked) [2-(5-Dimethylamino-1H-pyrrolo[2,3-c]pyridin-2-ylmethyl)-1,1,1-trifluoro-4-(5-fluoro-2-methylphenyl)-4-methylpentan-2-ol] | potent activity | potent agonists |
| CC(C)(CC(O)(Cc1ccnc2ccccc12)C(F)(F)F)c1ccccc1F (centres unmarked) [1,1,1-Trifluoro-4-(2-fluorophenyl)-4-methyl-2-quinolin-4-ylmethylpentan-2-ol] | potent activity | potent agonists |
| Cc1cc(C)c(C(C)(C)CC(O)(Cc2[nH]c3ccccc3c2C#N)C(F)(F)F)cc1O (centres unmarked) [2-[2-Hydroxy-4-(5-hydroxy-2,4-dimethylphenyl)-4-methyl-2-trifluoromethylpentyl]-1H-indole-3-carbonitrile] | potent activity | potent agonists |
| COc1ccc(F)cc1C(C)(C)CC(O)(Cc1cc2cc(Cl)ncc2[nH]1)C(F)(F)F (centres unmarked) [1,1,1-Trifluoro-4-(5-fluoro-2-methoxyphenyl)-2-(5-chloro-1H-pyrrolo[2,3-c]pyridin-2-ylmethyl)-4-methylpentan-2-ol] | potent activity | potent agonists |
| Cc1ccccc1C(C)(C)CC(O)(Cc1ccnc2ccccc12)C(F)(F)F (centres unmarked) [1,1,1-Trifluoro-4-methyl-2-quinolin-4-ylmethyl-4-o-tolylpentan-2-ol] | potent activity | potent agonists |
| Cc1ccc(C)c(C(C)(C)CC(O)(Cc2cc3ccccc3[nH]2)C(F)(F)F)c1 (centres unmarked) [4-(2,5-Dimethylphenyl)-1,1,1-trifluoro-2-(1H-indol-2-ylmethyl)-4-methylpentan-2-ol] | potent activity | potent agonists |
| COc1ccc(F)cc1C(C)(C)CC(O)(Cc1cc2nnccc2[nH]1)C(F)(F)F (centres unmarked) [1,1,1-Trifluoro-4-(5-fluoro-2-methoxyphenyl)-4-methyl-2-(5H-pyrrolo[3,2-c]pyridazin-6-ylmethyl)pentan-2-ol] | potent activity | potent agonists |
| Cc1cccc(C)c1C(C)(C)CC(O)(Cc1cc2ccccc2[nH]1)C(F)(F)F (centres unmarked) [4-(2,6-Dimethylphenyl)-1,1,1-trifluoro-2-(1H-indol-2-ylmethyl)-4-methylpentan-2-ol] | potent activity | potent agonists |
| CC(C)(CC(O)(Cc1cc2ccccc2[nH]1)C(F)(F)F)c1cccc(F)c1 (centres unmarked) [1,1,1-Trifluoro-4-(3-fluorophenyl)-2-(1H-indol-2-ylmethyl)-4-methylpentan-2-ol] | potent activity | potent agonists |
| Cc1ccc(C(C)(C)CC(O)(Cc2ccnc3ccccc23)C(F)(F)F)cc1C (centres unmarked) [4-(3,4-Dimethylphenyl)-1,1,1-trifluoro-4-methyl-2-quinolin-4-ylmethylpentan-2-ol] | potent activity | potent agonists |
| CC(C)(CC(O)(Cc1ccnc2ccccc12)C(F)(F)F)c1cccc(Cl)c1 (centres unmarked) [4-(3-Chlorophenyl)-1,1,1-trifluoro-4-methyl-2-quinolin-4-ylmethylpentan-2-ol] | potent activity | potent agonists |
| CC(C)(CC(O)(Cc1cc2ccc(C#N)cc2[nH]1)C(F)(F)F)c1cc(F)ccc1O (centres unmarked) [2-[4-(5-Fluoro-2-hydroxyphenyl)-2-hydroxy-4-methyl-2-trifluoromethylpentyl]-1H-indole-6-carbonitrile] | potent activity | potent agonists |
| Cc1cc2[nH]c(CC(O)(CC(C)(C)c3cc(F)ccc3C)C(F)(F)F)cc2c(C)n1 (centres unmarked) [2-(4,6-Dimethyl-1H-pyrrolo[3,2-c]pyridin-2-ylmethyl)-1,1,1-trifluoro-4-(5-fluoro-2-methylphenyl)-4-methylpentan-2-ol] | potent activity | potent agonists |
| Cc1cc(CC(O)(CC(C)(C)c2ccc(F)cc2)C(F)(F)F)cc(C)n1 (centres unmarked) [2-(2,6-Dimethylpyridin-4-ylmethyl)-1,1,1-trifluoro-4-(4-fluorophenyl)-4-methylpentan-2-ol] | potent activity | potent agonists |
| Cc1ccc(O)c(C(C)(C)CC(O)(Cc2cc3ccccc3[nH]2)C(F)(F)F)c1 (centres unmarked) [4-Methyl-2-[4,4,4-trifluoro-3-hydroxy-3-(1H-indol-2-ylmethyl)-1,1-dimethylbutyl]phenol] | potent activity | potent agonists |
